Like-named read-outs stand apart in the source and are kept apart here.
Assays:
[1] = test system: isolated mouse liver mitochondria; settings: In vitro Assay; ref Porceddu 2012; cited from earlier work
[2] = Plasma free fraction (fu) and unbound Cmax (Cmax,u); type: in vitro ADME, human; settings: unbound plasma Cmax
Experimental: The prediction of DILI severity was evaluated further using the 3D combined HCI assays using plasma-free fraction. The majority of fu values were obtained from literature, when unavailable in-house prediction was utilised. Unbound plasma Cmax concentrations (Cmax,u) were derived by multiplying total plasma Cmax with the corresponding free fraction (fu) for each compound.

[3] = read-out: Human plasma Cmax; total plasma Cmax.tot, median of 9 literature references; cited from earlier work
[4] = plasma free fraction; cited from earlier work
hLiMTs [5] = test: Combined HCI (HCS) and cellular ATP 3D assay in hLiMTs; settings: for DILI prediction hLiMTs (HCS-MEC): Microtissue model structural based (HCI), combined HCS and ATP, MEC < 25 × Cmax.tot cut-off; for hLiMTs <25x Avg Cmax ATP / hLiMTs <100x Avg Cmaxu ATP: ATP endpoint; for hLiMTs <25x Avg Cmax ATP / hLiMTs <25x Avg Cmax HCS / hLiMTs <25x Avg Cmax All: cut-off <25x Avg Cmax; for hLiMTs <100x Avg Cmaxu ATP / hLiMTs <100x Avg Cmaxu HCS / hLiMTs <100x Avg Cmaxu All: cut-off <100x Avg Cmaxu; for hLiMTs <25x Avg Cmax HCS / hLiMTs <100x Avg Cmaxu HCS: HCS endpoints; for hLiMTs <25x Avg Cmax All: all endpoints (ATP and HCS); for hLiMTs Cmax max All / hLiMTs Cmax min All / hLiMTs <10 uM All / hLiMTs <100x Avg Cmaxu All: all endpoints; for hLiMTs Cmax max All: Cmax max used; for hLiMTs Cmax min All: Cmax min used; for hLiMTs <10 uM All: cut-off <10 uM; for AC50 / minimal effective concentration: Homo sapiens
HepaRG spheroids = test: Combined HCI (HCS) and cellular ATP 3D assay in HepaRG spheroids; settings: for HepaRG <25x Avg Cmax ATP / HepaRG <100x Avg Cmaxu ATP: ATP endpoint; for HepaRG <25x Avg Cmax ATP / HepaRG <25x Avg Cmax HCS / HepaRG <25x Avg Cmax All: cut-off <25x Avg Cmax; for HepaRG <100x Avg Cmaxu ATP / HepaRG <100x Avg Cmaxu HCS / HepaRG <100x Avg Cmaxu All: cut-off <100x Avg Cmaxu; for HepaRG <25x Avg Cmax HCS / HepaRG <100x Avg Cmaxu HCS: HCS endpoints; for HepaRG <25x Avg Cmax All: all endpoints (ATP and HCS); for HepaRG Cmax max All / HepaRG Cmax min All / HepaRG <10 uM All / HepaRG <100x Avg Cmaxu All: all endpoints; for HepaRG Cmax max All: Cmax max used; for HepaRG Cmax min All: Cmax min used; for HepaRG <10 uM All: cut-off <10 uM; for AC50 / minimal effective concentration: Homo sapiens; for HepaRG <25x Avg Cmax ATP / HepaRG <100x Avg Cmaxu ATP / HepaRG <25x Avg Cmax HCS / HepaRG <100x Avg Cmaxu HCS / HepaRG <25x Avg Cmax All / HepaRG Cmax max All / HepaRG Cmax min All / HepaRG <10 uM All / HepaRG <100x Avg Cmaxu All / AC50 / minimal effective concentration: HepaRG; for DILI prediction HepaRG spheroids (HCS-MEC): Microtissue model structural based (HCI), combined HCS and ATP, MEC < 25 × Cmax.tot cut-off
human hepatocytes = settings: cited from earlier work
hLiMTs [6] = settings: cited from earlier work
[7] = test system: HepG2 cells, primary human hepatocytes; settings: In vitro Assay; ref Garside 2014; cited from earlier work
[8] = test system: THLE or HepG2 cells, isolated mitochondria, BSEP; settings: cited from earlier work
PHH = settings: cited from earlier work
[9] = ref Chen 2011; cited from earlier work
[10] = test system: HepG2 C3A spheroid, BSEP, Glu/Gal in HepG2 cells, bioactivation; settings: cited from earlier work
[11] = cited from earlier work
[12] = cited from earlier work; remark: listed apart in the source
[13] = test system: primary human hepatocytes, NIH3T3 fibroblasts, BSEP, CYP3A4; settings: cited from earlier work
[14] = In vitro Assay, ref Proctor 2017
[15] = Modeled in vitro assays (cytotoxicity, mitochondrial dysfunction, BSEP), ref Aleo et al. 2019
[16] = In vitro Assay, ref Schadt 2015

## CC[C@H]1OC(=O)[C@H](C)[C@@H](O[C@H]2C[C@@](C)(OC)[C@@H](O)[C@H](C)O2)[C@H](C)[C@@H](O[C@@H]2O[C@H](C)C[C@H](N(C)C)[C@H]2O)[C@](C)(O)C[C@@H](C)C(=O)[C@H](C)[C@@H](O)[C@]1(C)O [erythromycin]
[1]
  in vitro data EC2<=1x Cmax: +VE
[2]
  Human plasma Cmax,u: 620 nM
[3]
  Cmax: 6200 nM
[4]
  fu: 0.100
hLiMTs [5]
  DILI prediction hLiMTs (HCS-MEC): -VE
  hLiMTs <25x Avg Cmax ATP: -ve
  hLiMTs <100x Avg Cmaxu ATP: -ve
  hLiMTs <25x Avg Cmax HCS: -ve
  hLiMTs <100x Avg Cmaxu HCS: -ve
  hLiMTs <25x Avg Cmax All: -ve
  hLiMTs Cmax max All: -ve
  hLiMTs Cmax min All: -ve
  hLiMTs <10 uM All: -ve
  hLiMTs <100x Avg Cmaxu All: -ve
HepaRG spheroids
  HepaRG <25x Avg Cmax ATP: +ve
  HepaRG <100x Avg Cmaxu ATP: -ve
  HepaRG <25x Avg Cmax HCS: +ve
  HepaRG <100x Avg Cmaxu HCS: +ve (<100x Avg Cmaxu)
  HepaRG <25x Avg Cmax All: +ve
  HepaRG Cmax max All: +ve
  HepaRG Cmax min All: +ve
  HepaRG <10 uM All: -ve
  HepaRG <100x Avg Cmaxu All: +ve (<100x Avg Cmaxu)
  DILI prediction HepaRG spheroids (HCS-MEC): +VE (MEC < 25 × Cmax.tot cut-off)
HepaRG spheroids; read-out: ATP endpoint AC50
  AC50: 214 µM
HepaRG spheroids; read-out: ATP endpoint MEC
  minimal effective concentration: 128 µM
HepaRG spheroids; read-out: HCS endpoint AC50
  AC50: 294 µM
HepaRG spheroids; read-out: HCS endpoint MEC
  minimal effective concentration: 38.1 µM
Human hepatocytes; In vitro Assay, ref Xu 2008
  Structural based (HCI): -VE
Human hepatocytes; Structural based (HCI), human hepatocytes, ref Xu et al. 2008
  DILI in vitro assay prediction, Xu (2008): -VE

## CCN(CC)CCNC(=O)c1c(C)[nH]c(/C=C2\C(=O)Nc3ccc(F)cc32)c1C [sunitinib]
[1]
  in vitro data EC2<=1x Cmax: +VE
  in vitro data EC20<=2uM: -VE
hLiMTs [6]; [14]
  hLiMTs ATP <100uM: +VE (IC50 threshold of 100 µM)
hLiMTs [6]; hLiMTs, ATP, IC50 < 100 × Cmax.tot, ref Proctor et al. 2017
  hLiMTs/100xCmax, Proctor (2017): +VE (IC50 < 100 × Cmax.tot)
hLiMTs [6]; hLiMTs, ATP, IC50 threshold 100 µM, ref Proctor et al. 2017
  hLiMTs/100uM, Proctor (2017): +VE (IC50 threshold of 100 µM)
[7]
  Cluster 1-6 +VE Assay: +VE
[8]; In vitro Assay, ref Aleo 2019
  Partition Hybrid HRM Score: -VE
  Ro2 Hybrid HRM Score: -VE
[8]; [15]
  Partition Hybrid HRM Score ≥4, Aleo (2019): +VE (Partition Hybrid HRM Score ≥4)
  Partition Hybrid HRM Score ≥8, Aleo (2019): -VE
  Rule of Two hybrid HRM Score ≥3, Aleo (2019): -VE
  Rule of Two hybrid HRM Score ≥8, Aleo (2019): -VE
PHH; 2D PHH, ATP, IC50 < 100 × Cmax.tot, ref Proctor et al. 2017
  PHH/100xCmax, Proctor (2017): +VE (IC50 < 100 × Cmax.tot)
PHH; 2D PHH, ATP, IC50 threshold 100 µM, ref Proctor et al. 2017
  PHH/100uM, Proctor (2017): +VE (IC50 threshold of 100 µM)
PHH; [14]
  PHH ATP <100uM: +VE (IC50 threshold of 100 µM)
[9]
  DILI Score (FDA) (1-8): 8
[2]
  Human plasma Cmax,u: 3 nM
[4]
  fu: 0.050
[10]; Bayesian modeling, ref Williams et al. 2019
  Bayesian Machine Learning DILI prediction, Williams (2019): +VE
[10]; In vitro Assay, ref Williams 2019
  Bayesian Machine Learning: +VE
hLiMTs [5]; read-out: ATP endpoint AC50
  AC50: 0.4 µM
hLiMTs [5]; read-out: ATP endpoint MEC
  minimal effective concentration: 0.347 µM
hLiMTs [5]; read-out: HCS endpoint AC50
  AC50: 0.421 µM
hLiMTs [5]; read-out: HCS endpoint MEC
  minimal effective concentration: 0.157 µM
hLiMTs [5]
  DILI prediction hLiMTs (HCS-MEC): +VE (MEC < 25 × Cmax.tot cut-off)
  hLiMTs <25x Avg Cmax ATP: +ve
  hLiMTs <100x Avg Cmaxu ATP: -ve
  hLiMTs <25x Avg Cmax HCS: +ve
  hLiMTs <100x Avg Cmaxu HCS: +ve (<100x Avg Cmaxu)
  hLiMTs <25x Avg Cmax All: +ve
  hLiMTs Cmax max All: +ve
  hLiMTs Cmax min All: +ve
  hLiMTs <10 uM All: +ve (<10 uM)
  hLiMTs <100x Avg Cmaxu All: +ve (<100x Avg Cmaxu)
HepaRG spheroids
  HepaRG <25x Avg Cmax ATP: +ve
  HepaRG <100x Avg Cmaxu ATP: -ve
  HepaRG <25x Avg Cmax HCS: +ve
  HepaRG <100x Avg Cmaxu HCS: +ve (<100x Avg Cmaxu)
  HepaRG <25x Avg Cmax All: +ve
  HepaRG Cmax max All: +ve
  HepaRG Cmax min All: +ve
  HepaRG <10 uM All: +ve (<10 uM)
  HepaRG <100x Avg Cmaxu All: +ve (<100x Avg Cmaxu)
  DILI prediction HepaRG spheroids (HCS-MEC): +VE (MEC < 25 × Cmax.tot cut-off)
HepaRG spheroids; read-out: ATP endpoint AC50
  AC50: 3.11 µM
HepaRG spheroids; read-out: ATP endpoint MEC
  minimal effective concentration: 1.1 µM
HepaRG spheroids; read-out: HCS endpoint AC50
  AC50: 1.71 µM
HepaRG spheroids; read-out: HCS endpoint MEC
  minimal effective concentration: 0.281 µM
[11]; LTKB DILIrank category, ref Chen et al. 2016
  DILI severity category (Chen et al. [2016]): Most
[11]; human DILI classification, LTKB DILIrank, ref Chen et al. 2016
  DILI severity category (Chen 2016): Most
[11]; human DILI severity, ref Chen et al.
  DILI severity category: Most
[11]; ref Chen 2016
  DILI +VE (5-8), DILI -VE (-4): +VE
  DILI severity category: vMost-DILI-Concern
[12]; Chen et al. 2016 or literature alignment, ref Chen et al. 2016
  Assigned DILI category: 3
[12]; ref Aleo 2019
  In vivo DILI: +VE
[12]; ref Garside 2014
  In vivo DILI: +VE
[12]; ref Porceddu 2012
  In vivo DILI: +VE
[12]; ref Proctor 2017
  In vivo DILI: +VE
[12]; ref Williams 2019
  In vivo DILI: +VE

## CCOC(=O)CN[C@@H](C(=O)N1CC[C@H]1C(=O)NCc1ccc(/C(N)=N\O)cc1)C1CCCCC1 [ximelagatran]
[1]
  in vitro data EC2<=1x Cmax: -VE
[2]
  Human plasma Cmax,u: 80 nM
[13]; BSEP & Metabolism based, ref Schadt et al. 2015
  DILI in vitro assay prediction, Schadt (2015): -VE
[13]; [16]
  Cellular toxicity (3T3 cells): -VE
  Combined Assay: -VE
  GSH adduct HML: -VE
  Hepatocyte cellular toxicity: -VE
  MitoTox 3T3: -VE
  TDI CYP3A4: -VE
  hBSEP inhibition: -VE
[3]
  Cmax: 380 nM
[4]
  fu: 0.210
hLiMTs [5]; read-out: ATP endpoint MEC
  minimal effective concentration: 61.8 µM
hLiMTs [5]
  DILI prediction hLiMTs (HCS-MEC): -VE
  hLiMTs <25x Avg Cmax ATP: -ve
  hLiMTs <100x Avg Cmaxu ATP: -ve
  hLiMTs <25x Avg Cmax HCS: -ve
  hLiMTs <100x Avg Cmaxu HCS: -ve
  hLiMTs <25x Avg Cmax All: -ve
  hLiMTs Cmax max All: -ve
  hLiMTs Cmax min All: -ve
  hLiMTs <10 uM All: -ve
  hLiMTs <100x Avg Cmaxu All: -ve
HepaRG spheroids
  HepaRG <25x Avg Cmax ATP: -ve
  HepaRG <100x Avg Cmaxu ATP: -ve
  HepaRG <25x Avg Cmax HCS: -ve
  HepaRG <100x Avg Cmaxu HCS: -ve
  HepaRG <25x Avg Cmax All: -ve
  HepaRG Cmax max All: -ve
  HepaRG Cmax min All: -ve
  HepaRG <10 uM All: -ve
  HepaRG <100x Avg Cmaxu All: -ve
  DILI prediction HepaRG spheroids (HCS-MEC): -VE
HepaRG spheroids; read-out: ATP endpoint MEC
  minimal effective concentration: 149 µM
HepaRG spheroids; read-out: HCS endpoint MEC
  minimal effective concentration: 133 µM
